Reference: patent US11779015B2, “Pesticide compositions” (FUNDACIÓ CENTRE DE REGULACIÓ GENÒMICA, priority 2017, dated 2023)
Entries after “also recorded” stand apart in the source; their conditions may differ.

What was measured:
[1] = tested on: D. suzukii; assay: Positional and ovipositional preference on food substrate plated with compound; type: in vivo, Drosophila suzukii; settings: for positional preference/avoidance of adult flies: food plated with compound vs blank, monitored over 5 hours
Method: Adult flies 200 are placed in a plastic box 600 with mesh-netting 800 in the lid to allow aeration. Two food sources 400a and 400b (for example petri dishes containing molasses-apple juice agar substrates) are placed into the box 600, of which one 600a is plated with a compound to be tested, and the other 600b is left blank as a control.
Using this experimental set up and pure (E)-2-hexenal or methyl benzoate, the positional preference of the flies was monitored over 5 hours. The ovipositional preference was measured after 24 hours by counting the number of eggs laid on either plate. […] The same experimental set up was used to test for positional and ovipositional preference using different concentrations of (E)-2-hexenal, i.e. 1.2% vol, 3.4% vol, 11.6% vol and 34% vol. The results of these assays are shown on FIG. 7C. All data shown represents the mean+S.E.M. over 2 to 6 trials per condition. In FIG. 7C, deviations marked by a star are associated with a unpaired t-test p-value below 0.05 following a one-way ANOVA test with F(4,22)=3.987 (p=0.017).
Petri dishes (∅ 6 cm) filled with 10 ml of a molasses-apple juice-agar medium acted as food substrate. These were plated with methyl benzoate or (E)-2-hexenal. Two Petri dishes were placed inside a plastic box (32×22×12 cm) with a mesh netting in the lid. One dish was plated with a thin layer of pure odour (1.8 μl (E)-2-hexenal or 0.9 μl methyl benzoate when used pure, or 50 μl of (E)-2-hexenal when used in diluted solutions), and the other was left blank as a control. More (E)-2-hexenal was used because its vapour pressure is 4 times lower than that of methyl benzoate and, thus, is prone to dissipate faster. 20 mixed sex adult flies were placed inside the plastic box and monitored every 0.5 hours, over a period of 5 hours, to assess their positional preference by counting the number of flies positioned on either plate. After 24 hours, their ovipositional preference was monitored by counting the number of eggs laid on either dish. Flies were cooled on ice for handling and discarded after each trial.

[2] = tested on: D. sechellia; assay: Airborne toxicity petri dish assay, adult flies (FIG. 1A); type: in vivo; settings: 10% vol
Description: (§1) In particular, adult flies 2 were exposed to compositions 4 comprising one or more of a selection of VOCs according to the invention or a comparative example, in a petri dish 6. The compositions 4 were loaded onto the lid 6a of the petri dish 6 and the flies were placed into the base 6b of the dish, which was then covered by a sheet of plastic mesh netting 8 to avoid direct contact of the flies 2 with the compositions 4, before replacing the lid 6a. The onset of paralysis/loss of locomotion control, ultimately resulting in death of the flies 2, was monitored over a period of 1 hour or until all flies 2 were dead, determined when fly wings were vertical (similar to the protocol described in Legal et al. 1992 and 1994).
(§2) Adult flies of Drosophila species were exposed to a 10% vol solution of (E)-2-hexenal and 10% vol solution of methyl benzoate, in an experimental set up as explained in relation to FIG. 1A. For each VOC, species of the suzukii complex (D. suzukii, D. biarmipes), melanogaster complex (D. melanogaster, D. simulans, D. sechellia), and erecta+yakuba complex (D. erecta, D. yakuba, D. santomea) of the melanogaster species group were compared. 5-10 mixed female and male adults were used per trial. FIGS. 4A and B show the results of these experiments, respectively for (E)-2-hexenal (FIG. 4A) and methyl benzoate (FIG. 4B). The data shown represents the average±SEM of the proportion of dead flies as a function of time, over 3 to 6 assays per condition.

[3] = tested on: D. yakuba; assay: as above; type: in vivo; settings: 10% vol
Description: as §1, §2

[4] = tested on: D. simulans; assay: as above; type: in vivo; settings: 10% vol
Description: as §1, §2

[5] = tested on: D. erecta; assay: as above; type: in vivo; settings: 10% vol
Description: as §1, §2

[6] = tested on: D. biarmipes; assay: as above; type: in vivo; settings: 10% vol
Description: as §1, §2

[7] = tested on: D. suzukii; assay: Airborne toxicity petri dish assay, adult flies exposed to VOC vapours (FIG. 1A); type: in vivo, Drosophila suzukii; settings: for LD50 (expected concentration at which 50% of the flies die): D. suzukii adults, vapours from solution in paraffin oil, within an hour; for T50 (time at which 50% of the flies were dead) / T50: D. suzukii; for T50: 10% vol; for airborne toxicity/lethality in the initial screen with a high dose (words): VOC at 10 M in paraffin oil, vapour exposure, 1 hour; for specificity of toxicity, D. suzukii versus D. melanogaster: at least at the 3, 5 and 10% vol concentrations
Method: A selection of compounds according to the invention were tested for airborne toxicity to D. suzukii by exposing a population of adult D. suzukii flies to the vapours of the compound using an experimental set up as shown on FIG. 1A.
In particular, adult flies 2 were exposed to compositions 4 comprising one or more of a selection of VOCs according to the invention or a comparative example, in a petri dish 6. The compositions 4 were loaded onto the lid 6a of the petri dish 6 and the flies were placed into the base 6b of the dish, which was then covered by a sheet of plastic mesh netting 8 to avoid direct contact of the flies 2 with the compositions 4, before replacing the lid 6a.
[…] Four drops of 50 microlitres were dispensed into reinforcement rings (not shown) fixed on the inner surface of the petri dish lid 6a.
The experimental set up used was as described in relation to FIG. 1A.
The data is shown as averages±SEM based on 3 to 6 trials for each condition.

[8] = tested on: honeybees (Apis mellifera); assay: Airborne toxicity on honeybees in the petri dish assay; type: in vivo; settings: adult bees exposed for one hour; for toxicity to honey bees: 10% vol
Method: The toxicity of (E)-2-hexenal and methyl benzoate volatiles was tested at 100% (pure) and 10% vol. concentrations on honeybees (Apis mellifera) in the petri dish assay of FIG. 1A. Adult bees were exposed for one hour and the proportion of death across all trials (5 trials with each of the pure VOCs and 10 trials for each of the 10% vol VOC assays) was calculated. The results of these experiments are shown on FIG. 8.
Honeybee foragers were obtained from a large bee keeping company (Agroquímica Ollé, http://agroquimicaolle.com). Bees were held in an incubator at 22 degrees for a few days and provided with ad libitum sugar water.

[9] = tested on: adult flies of D. suzukii; assay: Contact toxicity, adult flies sprayed in a bugdorm; type: in vivo, Drosophila suzukii; settings: for Proportion of dead flies (%): sprayed; for concentration inducing mortality by contact (as low as): sprayed adult D. suzukii
Method: Contact toxicity of E-2-hexenal and methyl benzoate volatiles was tested at different concentrations and in combination with thickeners in different concentration that make E-2-hexenal and methyl benzoate stick to the flies. […] Flies (10-15 mixed males/females) were placed into a bugdorm and sprayed from a distance of 10 cm. Mortality was evaluated after 24 hrs, except for the condition indicated with a star in Table 3, where an exposure time of 50 minutes was used. Thickeners were diluted in aqueous emulsions of deionised water containing 1% vol. Tween 20.

[10] = 0.1% compound + 1% Arabic Gom, 24 hrs
[11] = 0.1% compound + 1% hydroxyethylcellulose, 24 hrs
[12] = 0.1% compound, mortality after 24 hrs
[13] = 1% compound + 1% Arabic Gom, 24 hrs
[14] = 1% compound + 1% hydroxyethylcellulose, 24 hrs
[15] = 5% compound, mortality after 24 hrs
[16] = *1% compound, exposure time of 50 minutes

SMILES	positional preference/avoidance of adult flies [1]	T50 [2]	T50 [3]	T50 [4]	T50 [5]	T50 [6]	LD50 (expected concentration at which 50% of the flies die) [7]	T50 (time at which 50% of the flies were dead) ([7]; 1% concentration)	T50 [7]	T50 (time at which 50% of the flies were dead) ([7]; concentration 5% vol)	T50 (time at which 50% of the flies were dead) ([7]; concentration 10% vol)	T50 (time at which 50% of the flies were dead) ([7]; concentration 20% vol)	T50 (time at which 50% of the flies were dead) ([7]; concentration 100% vol)	airborne toxicity/lethality in the initial screen with a high dose (words) [7]	specificity of toxicity, D. suzukii versus D. melanogaster [7]	toxicity to honey bees [8]	Proportion of dead flies (%) [9, 10]	Proportion of dead flies (%) [9, 11]	Proportion of dead flies (%) [9, 12]	Proportion of dead flies (%) [9, 13]	further results
CCC/C=C/C=O [(E)-2-hexenal]	relatively weak	22.7 min	8.7 min	9 min	5.3 min	15.4 min	3 % vol	not lethal	4.1 min	9.3 min	4.1 min	1.6 min	1.2 min	highly toxic; also recorded: showed toxicity	specific toxicity towards D. suzukii	low levels of toxicity	80%	80%	31%	10%	concentration from which flies avoid laying their eggs on the plated side ([1]; tested 1.2, 3.4, 11.6 and 34% vol, eggs counted after 24 hours): ≥ 3.4 % vol; lethality as a function of the sex of the flies ([7]; 5% vol in paraffin solution, adult D. suzukii, males vs females): males displayed more sensitivity; toxicity to honey bees (rate) ([8]; 100% (pure) compound): significantly faster rate than pure methyl benzoate; Proportion of dead flies (%) [9, 14]: 50%; Proportion of dead flies (%) [9, 15]: 100%; Proportion of dead flies (%) [9, 16]: 50%; concentration inducing mortality by contact (as low as) [9]: 0.1%
COC(=O)c1ccccc1 [methyl benzoate, Methyl benzoate]	stronger avoidance response	34 min	11 min	9.4 min	13.8 min	9.6 min	3 % vol	not lethal	5.9 min	9.8 min	5.9 min	4.2 min	2.8 min	highly toxic; also recorded: showed toxicity	specific toxicity towards D. suzukii	low levels of toxicity	30%	10%	33%	30%	ovipositional preference (egg-laying) ([1]; food plated with pure compound vs blank, eggs counted after 24 hours): strong egg-laying deterrent; Proportion of dead flies (%) [9, 14]: 70%; Proportion of dead flies (%) [9, 15]: 100%; Proportion of dead flies (%) [9, 16]: 30%; concentration inducing mortality by contact (as low as) [9]: 0.1%
